# Like-named read-outs stand apart in the source and are kept apart here.
# Legend:
# [1] = molecular target: T1, porcine succinate-cytochrome c reductase (SCR, the mixture of complex II and bc1) (Sus scrofa, UniProt P24964); experiment: SCR activity, succinate-cytochrome c system (Assay 1); type: biochemical; settings: for ∆∆Gexp: Table S1, experimental binding free energy change vs compound 1; for ΔΔGexp: experimental binding free energy change relative to compound 1
# T1 construct: T h e S C R f r o m p o r c i n e h e a r t; from tissue; host or cells: porcine heart
# Description: (§1) Figure 4 Slow-binding inhibition mechanism. (A,B) Effect of various concentrations of cytochrome c and compound 18 on the inhibition of SCR activity. Each reaction mixture contains 100 mM, pH 7.4), EDTA (0.3 mM), succinate (20 mM), SCR (0.1 nM), and indicated amounts of cytochrome c and compound 18. The assays were performed in the presence of (A) 18 (35 nM) and a specified amount of cytochrome c (1, 4 μM; 2, 8 μM; 3, 20 μM; and 4, 48 μM) or (B) cytochrome c (60 μM) and various concentrations of compound 18 (1, 0 nM; 2, 15 nM; 3, 20 nM; 4, 30 nM; 5, 40 nM; and 6, 50 nM). Experimental data are shown as coloured dots and theoretical values are represented as black solid lines. Insets: plots of Kobs against concentration of (A) cytochrome c and (B) compound 18. […] Each reaction mixture contains 100 mM, pH 6.5), EDTA (2 mM), lauryl maltoside (750 μM), oxidised cytochrome c (100 μM), SCR (0.05 nM), and indicated amounts of DBH2 and compound 18. Two representative sets of inhibitory assays were performed in the presence of (C) DBH2 (20 μM) and a specified amount of compound 18 (1, 20 nM; 2, 40 nM; 3, 60 nM; 4, 80 nM), or (D) DBH2 (120 μM) and a specified amount of compound 18 (1, 40 nM; 2, 80 nM; 3, 120 nM; 4, 180 nM). Insets: plots of Kobs against concentration of compound 18. (E) Plot of the apparent rate constant A against concentration of DBH2. Inset: Plot of 1/A against concentration of DBH2. (F) Plot of the apparent rate constant B against concentration of DBH2.
# (§2) The porcine succinate-cytochrome c reductase (SCR, the mixture of complex II and bc1) was prepared essentially according to the previously reported method. The enzymatic activities of SCR, complex II, and bc1 complex were analyzed in respective reaction mixtures as reported previously. Kinetic analyses for the inhibition mechanism were performed as previously described. […]
# (§3) inhibitory kinetics study of bc1 inhibitors 8. […]
# (§4) synthesized compounds against bc1 complex were examined by SCR. As previously described 9, the combined activity of SCR can be determined by using succinate and cytochrome c as substrates (Assay 1). We also measured the activity of complex II by using succinate and 2,6-dichloroindophenol (DCIP) as substrates (Assay 2), or the activity of bc1 complex by using decylubiquinol (DBH2) and cytochrome c as substrates (Assay 3). […]
# redA 10, was used to represent the enzyme concentration. The three redox reactions used in this study were summarized as follows.
# Assay 1: succinate + cytochrome c3+ S C R fumarate + cytochrome c2+
# Assay 2: succinate + DCIP complex II fumarate + DCIPH 2
# Assay 3: DBH 2 + cytochrome c3+ bc1 complex DB + cytochrome c2+
# All assays were performed at 23 °C. The enzymatic activity of SCR (Assay 1) was carried out in 1.8 mL of reaction mixture containing 100 mM PBS (pH 7.4), 0.3 mM EDTA, and indicated concentrations of succinate and oxidized cytochrome c (Sigma-Aldrich). The activity of succinate-ubiquinone reductase (complex II, Assay 2) was determined in essentially the same reaction mixture, except for the replacement of cytochrome c with DCIP (Alfa Aesar). […] DBH 2 was prepared through reduction of decylubiquinone by dithionite (Sigma-Aldrich) as previously described 11,12. The nonionic detergent LM was used to decrease the interfering non-enzymatic activity though it slightly […]
# [2] = tested on: Sphaerotheca fuliginea (Schlecht.) Poll.; experiment: In vivo fungus growth inhibitory rate at 200 mg/L, powdery mildew
# Excerpt: Based on the above in vitro study, compounds with nanomolar and subnanomolar Ki values were selected from the total 21 newly synthezised compounds for further studies. Pesticide likeness, defined as a complex balance of various physicochemical properties and structure features, can evaluate whether a molecule is similar to the known pesticides. After the filtration of pesticide likeness, seven compounds were kept to adhere to our previously defined rules for pesticide-likeness including molecular weight (MW) ≤ 435 Da, ClogP ≤ 6, number of H-bond acceptors (HBA) ≤ 6, number of H-bond donors (HBD) ≤ 2, number of rotatable bonds (ROB) ≤ 9, and number of aromatic bonds (ARB) ≤ 17 (Table 1)[24]. […] Therefore, compound 18 was recognized as lead compound for subsequent studies.
# (§5) [a] Compounds are named as “series number-site number plus substitution group number” a: -F, b: -Cl, c:
# (§6) -Br, d: -NO2, e: -CH3, f: -CF3, g: -OCH3, h: -OH, i: -NH2, j: -COOH.
# (§7) [b] Substitution number and group.
# (§8) [c] CH is “series 1” and N is “series 2”. […]
# (§9) Table S2 Fungus growth inhibitory rate of target compounds (200 mg/L).
# (§10) Comp. No. R X Sphaerotheca fuliginea Pseudoperonospora cubensis
# [3] = tested on: Pseudoperonospora cubensis (Berk. et Curt.); experiment: In vivo fungus growth inhibitory rate at 200 mg/L, downy mildew
# Description: as §5, §6, §7, §8, §9, §10
# [4] = molecular target: T2, bc1 complex (Sus scrofa, UniProt P24964); experiment: bc1 complex activity, DBH2-cytochrome c system (Assay 3); type: biochemical, porcine
# T2 construct: T h e S C R f r o m p o r c i n e h e a r t; from tissue; host or cells: porcine heart
# Description: Figure 3 Inhibitory kinetics of bc1 complex. (A) Chemical structures of AZ (azoxystrobin) and its analogues, compound 1 and compound 18. These compounds have a common pharmacophore structure: methoxyacrylate (MOA). […] Each reaction mixture contains phosphate buffered saline (PBS; 100 mM, pH 6.5), ethylenediaminetetraacetic acid (EDTA; 2 mM), lauryl maltoside (750 μM), oxidised cytochrome c (100 μM), SCR (0.05 nM), DBH2 (20–120 μM) and a specified amount of AZ (1, 0 nM; 2, 500 nM; 3, 1000 nM; 4, 2000 nM; 5, 3000 nM; and 6, 5000 nM). (C) Compound 1 is non-competitive with respect to cytochrome c. The reaction mixture contains 100 mM, pH 7.4), EDTA (0.3 mM), succinate (20 mM), SCR (0.1 nM), cytochrome c (1.13–15.6 μM), and a series of concentrations of compound 1 (1, 0 nM; 2, 10 nM; 3, 20 nM; 4, 40 nM; and 5, 60 nM). (D) Compound 1 is competitive with respect to DBH2. Each reaction mixture contains 100 mM, pH 6.5), EDTA (2 mM), lauryl maltoside (750 μM), oxidised cytochrome c (100 μM), SCR (0.05 nM), DBH2 (20–120 μM) and a specified amount of compound 1 (1, 0 nM; 2, 50 nM; 3, 100 nM; 4, 200 nM; 5, 300 nM; and 6, 500 nM).
# as §1, §2, §3, §4
# redA 10, was used to represent the enzyme concentration. The three redox reactions used in this study were summarized as follows. […]
# [5] = Table S1, inhibition constant with bc1 complex, read-out: Ki
# T1 sequence (P24964 whole entry, one chain of several): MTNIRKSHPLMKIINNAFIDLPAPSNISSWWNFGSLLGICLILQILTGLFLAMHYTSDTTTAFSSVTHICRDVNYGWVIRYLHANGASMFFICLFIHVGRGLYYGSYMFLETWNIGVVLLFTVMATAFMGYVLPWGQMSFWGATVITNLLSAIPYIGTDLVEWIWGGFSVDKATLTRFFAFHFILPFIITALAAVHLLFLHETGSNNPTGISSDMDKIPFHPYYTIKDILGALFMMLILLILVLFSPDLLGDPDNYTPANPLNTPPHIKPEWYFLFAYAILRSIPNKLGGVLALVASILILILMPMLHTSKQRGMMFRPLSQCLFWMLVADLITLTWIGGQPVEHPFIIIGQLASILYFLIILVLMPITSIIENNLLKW
# T2 sequence (P24964 whole entry, one chain of several): as above
Compound,∆∆Gexp [1],"Ki [1, 5]",Ki [1],ΔΔGexp [1],further results
CO/N=C(/C(=O)OC)c1ccccc1CSc1nc2c(Cl)cccc2s1 [Compound 43],0.77 kcal/mol,114 ± 2.25 nM,–,–,–
CO/C=C(/C(=O)OC)c1ccccc1CSc1nc2ccc(C(F)(F)F)cc2s1 [Compound 27],-2.16 kcal/mol,–,0.81 ± 0.03 nM,-2.16 kcal/mol,–
CO/N=C(/C(=O)OC)c1ccccc1CSc1nc2cc([N+](=O)[O-])ccc2s1 [Compound 55],-2.00 kcal/mol,–,1.07 ± 0.12 nM,-2.00 kcal/mol,–
CO/C=C(/C(=O)OC)c1ccccc1CSc1nc2ccc(F)cc2s1 [Compound 22],-1.22 kcal/mol,–,3.97 ± 0.27 nM,-1.22 kcal/mol,–
CO/C=C(/C(=O)OC)c1ccccc1CSc1nc2cc(F)ccc2s1 [Compound 12],-1.58 kcal/mol,–,2.15 ± 0.23 nM,-1.58 kcal/mol,"Fungus growth inhibitory rate, Sphaerotheca fuliginea [2]: 99%; Fungus growth inhibitory rate, Pseudoperonospora cubensis [3]: 90%"
CO/N=C(/C(=O)OC)c1ccccc1CSc1nc2ccc(F)cc2s1 [Compound 62],0.55 kcal/mol,78.3 ± 1.37 nM,–,–,–
CO/N=C(/C(=O)OC)c1ccccc1CSc1nc2ccc(C)cc2s1 [Compound 66],-0.57 kcal/mol,11.9 ± 1.08 nM,–,–,–
CO/C=C(/C(=O)OC)c1ccccc1CSc1nc2c(F)cccc2s1 [Compound 2],0.09 kcal/mol,35.9 ± 1.24 nM,–,–,–
CO/N=C(/C(=O)OC)c1ccccc1CSc1nc2ccc([N+](=O)[O-])cc2s1 [Compound 65],-0.08 kcal/mol,27.3 ± 1.27 nM,–,–,–
CO/N=C(/C(=O)OC)c1ccccc1CSc1nc2c(F)cccc2s1 [Compound 42],0.97 kcal/mol,160 ± 1.1 nM,–,–,–
CO/C=C(/C(=O)OC)c1ccccc1CSc1nc2cc([N+](=O)[O-])ccc2s1 [Compound 15],-2.60 kcal/mol,–,0.39 ± 0.02 nM,-2.60 kcal/mol,–
CO/N=C(/C(=O)OC)c1ccccc1CSc1nc2ccc(Cl)cc2s1 [Compound 63],-0.71 kcal/mol,9.37 ± 1.24 nM,–,–,–
"CO/C=C(/C(=O)OC)c1ccccc1CSc1nc2ccccc2s1 [Compound 1, E-Methyl 2-(2-((benzo-thiazol-2-ylthio)methyl)phenyl)-3-methoxyacrylate]",0.00 kcal/mol,–,31.1 ± 0.9 nM,0.00 kcal/mol,"inhibition type with respect to cytochrome c ([1]; Assay 1, varied cytochrome c): non-competitive; Ki [4]: 96.5 ± 5.6 nM; inhibition type with respect to DBH2 ([4]; Assay 3, varied DBH2): competitive; Ki in DBH2-cytochrome c system relative to Ki in succinate-cytochrome c system ([4]; Assay 3 vs Assay 1): approximately 3 fold; melting point: 84 to 86 °C"
CO/N=C(/C(=O)OC)c1ccccc1CSc1nc2cc(Cl)ccc2s1 [Compound 53],-1.42 kcal/mol,–,2.84 ± 0.03 nM,-1.42 kcal/mol,–
CO/C=C(/C(=O)OC)c1ccccc1CSc1nc2ccc(Cl)cc2s1 [Compound 23],-1.44 kcal/mol,–,2.75 ± 0.01 nM,-1.44 kcal/mol,–
CO/C=C(/C(=O)OC)c1ccccc1CSc1nc2ccc(Br)cc2s1 [Compound 24],-1.96 kcal/mol,–,1.15 ± 0.4 nM,-1.96 kcal/mol,–
CO/C=C(/C(=O)OC)c1ccccc1CSc1nc2c(Cl)cccc2s1 [Compound 3],0.47 kcal/mol,68.5 ± 1.21 nM,–,–,–
CO/C=C(/C(=O)OC)c1ccccc1CSc1nc2ccc(C)cc2s1 [Compound 26],-1.96 kcal/mol,–,1.15 ± 0.05 nM,-1.96 kcal/mol,"Fungus growth inhibitory rate, Sphaerotheca fuliginea [2]: 81%; Fungus growth inhibitory rate, Pseudoperonospora cubensis [3]: 97%"
CO/N=C(/C(=O)OC)c1ccccc1CSc1nc2ccc(Br)cc2s1 [Compound 64],-1.31 kcal/mol,–,3.44 ± 0.03 nM,-1.31 kcal/mol,–
CO/N=C(/C(=O)OC)c1ccccc1CSc1nc2cc(F)ccc2s1 [Compound 52],-0.28 kcal/mol,19.3 ± 1.32 nM,–,–,–
CO/C=C(/C(=O)OC)c1ccccc1CSc1nc2cc(Cl)ccc2s1 [Compound 13],-2.26 kcal/mol,–,0.69 ± 0.06 nM,-2.26 kcal/mol,–
